# Measured values from patent US8575158B2, “1-phenyl-substituted heterocyclyl derivatives and their use as prostaglandin D2 receptor modulators” (Actelion Pharmaceuticals Ltd., priority 2010, dated 2013).
# pIC50: −log10 of the molar value.
# Target: T1, hCRTH2 receptor (Homo sapiens, UniProt Q9Y5Y4)
# T1 construct: expressed in transfected cells; host or cells: HEK293
# T1 sequence (Q9Y5Y4 1-395): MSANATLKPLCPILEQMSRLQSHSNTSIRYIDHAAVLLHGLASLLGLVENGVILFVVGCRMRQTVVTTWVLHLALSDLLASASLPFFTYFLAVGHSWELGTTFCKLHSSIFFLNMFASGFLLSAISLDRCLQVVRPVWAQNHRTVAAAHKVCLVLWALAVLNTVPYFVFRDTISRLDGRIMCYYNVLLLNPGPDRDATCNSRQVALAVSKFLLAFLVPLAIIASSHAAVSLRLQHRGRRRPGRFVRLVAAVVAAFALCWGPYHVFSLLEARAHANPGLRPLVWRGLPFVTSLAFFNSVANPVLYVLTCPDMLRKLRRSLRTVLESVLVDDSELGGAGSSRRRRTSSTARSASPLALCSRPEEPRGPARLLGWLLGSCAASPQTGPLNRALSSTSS
# Assay: Radioligand displacement assay (3H-PGD2) on hCRTH2 receptor membranes
# Type: binding
# Conditions: antagonistic activity
# [1] = 3H-PGD2 radioligand displacement, HEK293-hCRTH2 membranes
# [2] = 3H-PGD2 displacement on HEK293-hCRTH2 membrane fragments
# [3] = radioligand displacement (3H-PGD2), hCRTH2 receptor membranes
SMILES,pIC50 [1],pIC50 [2],further results
O=C(O)COc1ccc(Cl)cc1C1c2ccccc2CN1C(=O)CCOc1ccccc1F (racemic) [Example 522],7.93,,
"Cc1cccc(CCCC(=O)N2CCc3ccccc3C2c2cc(Cl)ccc2OCC(=O)O)c1 (racemic) [Example 110, (±)-{4-Chloro-2-[2-(4-m-tolyl-butyryl)-1,2,3,4-tetrahydro-isoquinolin-1-yl]-phenoxy}-acetic acid]",,7.39,
"O=C(O)COc1ccc(Cl)cc1[C@@H]1c2ccccc2CCN1C(=O)[C@@H]1C[C@H]1c1ccccc1 [Example 232, {4-Chloro-2-[(S)-2-((1R,2R)-2-phenyl-cyclopropanecarbonyl)-1,2,3,4-tetrahydro-isoquinolin-1-yl]-phenoxy}-acetic acid]",,8.86,
"N#Cc1ccc(OCC(=O)O)c([C@@H]2c3ccccc3CCN2C(=O)OCc2ccccc2)c1 [Example 25, (S)-1-(2-Carboxymethoxy-5-cyano-phenyl)-3,4-dihydro-1H-isoquinoline-2-carboxylic acid benzyl ester]",,8.60,
"O=C(O)COc1ccc(Cl)cc1C1c2ccccc2CN1C(=O)CCn1ncc2cc(F)ccc21 (single isomer, unassigned) [Example 543, (4-Chloro-2-{2-[3-(5-fluoro-indazol-1-yl)-propionyl]-2,3-dihydro-1H-isoindol-1-yl}-phenoxy)-acetic acid]",6.45,,
"Cn1nccc1COC(=O)N1CCc2c(ccc(F)c2F)[C@H]1c1cc(Cl)ccc1OCC(=O)O [Example 312, (S)-1-(2-Carboxymethoxy-5-chloro-phenyl)-5,6-difluoro-3,4-dihydro-1H-isoquinoline-2-carboxylic acid 2-methyl-2H-pyrazol-3-ylmethyl ester]",8.33,,
COc1ccc2ccn(CCC(=O)N3CCc4ccccc4C3c3cc(Cl)ccc3OCC(=O)O)c2n1 (racemic) [Example 374],7.91,,
"COc1ccc(CCC(=O)N2CCc3ccccc3C2c2cc(F)ccc2OCC(=O)O)cc1 (racemic) [Example 130, (±)-(4-Fluoro-2-{2-[3-(4-methoxy-phenyl)-propionyl]-1,2,3,4-tetrahydro-isoquinolin-1-yl}-phenoxy)-acetic acid]",,6.57,
"O=C(COc1ccc(Cl)cc1[C@@H]1c2ccccc2CCN1C(=O)OCc1ccccc1)NO [Example 569, (S)-1-(5-Chloro-2-hydroxycarbamoylmethoxy-phenyl)-3,4-dihydro-1H-isoquinoline-2-carboxylic acid benzyl ester]",,,pIC50 [3]: 6.92
"CC1(C)CC1C(=O)N1CCc2ccccc2C1c1cc(Cl)ccc1OCC(=O)O (racemic) [Example 466, (±)-{4-Chloro-2-[2-(2,2-dimethyl-cyclopropanecarbonyl)-1,2,3,4-tetrahydro-isoquinolin-1-yl]-phenoxy}-acetic acid]",7.62,,
O=C(O)COc1ccc(F)cc1C1c2cc(-c3ccc(F)cc3)ccc2CCN1C(=O)OCc1ccccc1 (racemic) [Example 497],6.10,,
CC(C)(C)COC(=O)N1CCc2ccccc2C1c1cc(F)ccc1OCC(=O)O (racemic) [Example 166],,6.92,
COc1ccc(OCC(=O)N2CCc3ccccc3C2c2cc(Cl)ccc2OCC(=O)O)cc1 (racemic) [Example 415],6.68,,
Cc1cncc(OCC(=O)N2CCc3ccccc3C2c2cc(Cl)ccc2OCC(=O)O)c1 (racemic) [Example 474],6.70,,
"O=C(O)COc1ccc(Br)cc1C1c2cc(F)c(F)cc2CCN1C(=O)OCc1ccccc1 (racemic) [Example 10, (±)-1-(5-Bromo-2-carboxymethoxy-phenyl)-6,7-difluoro-3,4-dihydro-1H-isoquinoline-2-carboxylic acid benzyl ester]",,7.13,
"COc1cccc(CCC(=O)N2CCc3ccccc3C2c2cc(F)ccc2OCC(=O)O)c1 (racemic) [Example 129, (±)-(4-Fluoro-2-{2-[3-(3-methoxy-phenyl)-propionyl]-1,2,3,4-tetrahydro-isoquinolin-1-yl}-phenoxy)-acetic acid]",,6.55,
O=C(O)COc1ccc(F)cc1C1c2ccccc2CCN1C(=O)CNS(=O)(=O)c1ccccc1 (racemic) [Example 205],,6.03,
O=C(O)COc1ccc(Cl)cc1C1c2ccccc2CN1C(=O)Cn1ccc2ccccc21 (racemic) [Example 507],6.89,,
"O=C(O)COc1ccc(Cl)cc1C1c2ccccc2CCN1C(=O)CCCc1ccccc1Cl (racemic) [Example 113, (±)-(4-Chloro-2-{2-[4-(2-chloro-phenyl)-butyryl]-1,2,3,4-tetrahydro-isoquinolin-1-yl}-phenoxy)-acetic acid]",,7.59,

SMILES,pIC50 [1],pIC50 [2],further results
Cc1nc2ccccc2n1CCOC(=O)N1CCc2ccccc2[C@H]1c1cc(Cl)ccc1OCC(=O)O [Example 293],7.01,,
"Cc1nc(C)c(C2CC2C(=O)N2CCc3ccccc3C2c2cc(Cl)ccc2OCC(=O)O)s1 (racemic) [Example 467, (±)-(4-Chloro-2-{2-[2-(2,4-dimethyl-thiazol-5-yl)-cyclopropanecarbonyl]-1,2,3,4-tetrahydro-isoquinolin-1-yl}-phenoxy)-acetic acid]",6.40,,
"O=C(OCc1ccccc1)N1CCc2ccccc2C1c1cc(Cl)ccc1OCc1noc(=O)[nH]1 (racemic) [Example 572, (±)-1-[5-Chloro-2-(5-oxo-4,5-dihydro-[1,2,4]oxadiazol-3-ylmethoxy)-phenyl]-3,4-dihydro-1H-isoquinoline-2-carboxylic acid benzyl ester]",,,pIC50 [3]: 6.49
"O=C(O)COc1ccc(Cl)cc1C1c2ccccc2CCN1C(=O)Cn1ccc2ccccc21 (racemic) [Example 72, (±)-{4-Chloro-2-[2-(2-indol-1-yl-acetyl)-1,2,3,4-tetrahydro-isoquinolin-1-yl]-phenoxy}-acetic acid]",,7.36,
O=C(O)COc1ccc(Cl)cc1C1c2ccccc2CCN1C(=O)CCc1c[nH]c2ccccc12 (racemic) [Example 463],7.92,,
O=C(O)COc1ccc(Cl)cc1C1c2ccccc2CCN1C(=O)OCc1ccccc1Br (racemic) [Example 227],,8.14,
"O=C(O)COc1ccc(F)cc1C1c2ccccc2CCN1C(=O)Cc1ccc2cccnc2c1 (racemic) [Example 48, (±)-{4-Fluoro-2-[2-(2-quinolin-7-yl-acetyl)-1,2,3,4-tetrahydro-isoquinolin-1-yl]-phenoxy}-acetic acid]",,6.54,
"COc1cccc(CCCC(=O)N2CCc3ccccc3C2c2cc(Cl)ccc2OCC(=O)O)c1 (racemic) [Example 114, (±)-(4-Chloro-2-{2-[4-(3-methoxy-phenyl)-butyryl]-1,2,3,4-tetrahydro-isoquinolin-1-yl}-phenoxy)-acetic acid]",,7.46,
"O=C(O)COc1ccc(Cl)cc1[C@@H]1c2ccc(F)c(F)c2CCN1C(=O)OCc1ccccc1 [Example 229, (S)-1-(2-Carboxymethoxy-5-chloro-phenyl)-5,6-difluoro-3,4-dihydro-1H-isoquinoline-2-carboxylic acid benzyl ester]",,8.31,
"O=C(O)COc1ccc(-n2ccnn2)cc1C1c2ccccc2CCN1C(=O)OCc1ccccc1 (racemic) [Example 223, (±)-1-(2-Carboxymethoxy-5-[1,2, 3]triazol-1-yl-phenyl)-3,4-dihydro-1H-isoquinoline-2-carboxylic acid benzyl ester]",,8.15,
"O=C(O)COc1ccc(Cl)cc1[C@@H]1c2ccc(F)cc2CCN1C(=O)OCc1nc2ccccc2s1 [Example 344, (S)-1-(2-Carboxymethoxy-5-chloro-phenyl)-6-fluoro-3,4-dihydro-1H-isoquinoline-2-carboxylic acid benzothiazol-2-ylmethyl ester]",7.42,,
"Cc1cnc(COC(=O)N2CCc3cc(F)ccc3[C@H]2c2cc(Cl)ccc2OCC(=O)O)s1 [Example 326, (S)-1-(2-Carboxymethoxy-5-chloro-phenyl)-6-fluoro-3,4-dihydro-1H-isoquinoline-2-carboxylic acid 5-methyl-thiazol-2-ylmethyl ester]",8.06,,
Cc1cccc(COC(=O)N2CCc3ccccc3C2c2cc(Cl)ccc2OCC(=O)O)c1C (racemic) [Example 246],,8.46,
"Cc1ncsc1CCOC(=O)N1CCc2cc(F)ccc2[C@H]1c1cc(Cl)ccc1OCC(=O)O [Example 325, (S)-1-(2-Carboxymethoxy-5-chloro-phenyl)-6-fluoro-3,4-dihydro-1H-isoquinoline-2-carboxylic acid 2-(4-methyl-thiazol-5-yl)-ethyl ester]",7.67,,
"O=C(O)COc1ccc(F)cc1C1c2ccccc2CCN1C(=O)Oc1cccc(Cl)c1 (racemic) [Example 178, (±)-1-(2-Carboxymethoxy-5-fluoro-phenyl)-3,4-dihydro-1H-isoquinoline-2-carboxylic acid 3-chloro-phenyl ester]",,6.16,
"Cc1nc(CC(=O)N2CCc3ccccc3C2c2cc(F)ccc2OCC(=O)O)cs1 (racemic) [Example 57, (±)-(4-Fluoro-2-{2-[2-(2-methyl-thiazol-4-yl)-acetyl]-1,2,3,4-tetrahydro-isoquinolin-1-yl}-phenoxy)-acetic acid]",,6.14,
"O=C(O)COc1ccc(Cl)cc1C1c2ccccc2CN1C(=O)C1CC1c1cccc(F)c1 (stereo not drawn) [Example 523, (4-Chloro-2-{2-trans-[2-(3-fluoro-phenyl)-cyclopropanecarbonyl]-2,3-dihydro-1H-isoindol-1-yl}-phenoxy)-acetic acid]",7.39,,
"O=C(O)COc1ccc(-c2cncnc2)cc1C1c2ccccc2CCN1C(=O)OCc1ccccc1 (racemic) [Example 188, (±)-1-(2-Carboxymethoxy-5-pyrimidin-5-yl-phenyl)-3,4-dihydro-1H-isoquinoline-2-carboxylic acid benzyl ester]",,7.05,
